Results taken from PMC10492782, “Exploiting the aggregation propensity of beta-lactamases to design inhibitors that induce enzyme misfolding” (Nature Communications, 2023).
Where “and” joins values, the source holds several entries; their conditions need not be identical. Equal entries are not always repeated. Structures can show the parent of a compound that is named as a salt.

Assays:
[1] = system: uro-pathogenic E. coli strain (UPEC strain blaTEM-1); experiment: MIC of ampicillin with or without 32 µg/mL TEM3.2 or tazobactam; format: cell-based, Escherichia coli; conditions: 32 μg/mL of either TEM3.2 or tazobactam
Experimental: (§1) We also performed a tolerability study using a dose escalation method by administering the peptide at 2, 5, 10, 15, and 20 mg/kg via different parenteral routes: intravenous (IV), intraperitoneal (IP), and subcutaneous (SC) in female C57BL/6JAX mice, aged 8–10 weeks (Suppl Table 4). […] Vehicle alone (0.9% NaCl) was also administered (IV). After 24 h the animals were sacrificed and the bacterial load in the bladder, kidney, and ureter was quantified by determining the number of colony-forming units (CFU) per mL of tissue extract (Fig. 7E–G).
Determination of MIC values was performed using the broth microdilution method according to the EUCAST guideline, which was performed in 96-well polystyrene flat-bottom microtiter plates (BD Biosciences). Briefly, a single colony was inoculated into 5 mL Difco™ Mueller–Hinton Broth (BD Biosciences Ref 275730) and grown to the end-exponential growth phase in a shaking incubator at 37 °C. Cultures were subsequently diluted to a MacFarland (0.5 optical density) to reach 10^6 CFU/mL in fresh MHB medium. 50 µl of different concentrations of peptides ranging from 128 to 2 µg/mL were serially diluted to the sterile 96-well plate in MHB. 50 µL of the diluted bacteria in MHB were next pipetted into 96-well plates to reach the final volume of 100 µL. The bacteria grown with the maximum concentration of carrier and medium were considered positive and negative controls, respectively. The plates were statically incubated overnight at 37 °C to allow bacterial growth. OD was measured at 590 nm using a multipurpose ultraviolet–visible plate reader, and the absorbance of the bacterial growth was measured using an absorbance reader.

TEM-1 [2] = target: T1, TEM-1 (Escherichia coli, UniProt P62593); format: biochemical
T1 sequence (P62593 24-286 limits assumed): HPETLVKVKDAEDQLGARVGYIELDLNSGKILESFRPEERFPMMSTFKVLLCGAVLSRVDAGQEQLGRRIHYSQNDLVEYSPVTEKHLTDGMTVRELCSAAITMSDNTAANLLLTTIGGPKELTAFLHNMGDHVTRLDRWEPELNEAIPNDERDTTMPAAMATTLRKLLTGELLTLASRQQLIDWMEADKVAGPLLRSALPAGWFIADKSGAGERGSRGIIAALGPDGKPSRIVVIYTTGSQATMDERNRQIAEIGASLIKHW
Description: To satisfy the reviewer’s comment, we have performed urea denaturation in the presence
of a molar excess of tazobactam and compared it to the condition without.
two-state denaturation of the protein with a stable intermediate. The difference between
The plots show a single repeat.
Table 1: Results from fitting 3 replicates
G1 (kcal/mol) G2 (kcal/mol) Sum

TEM-1 [3] = target: T1, TEM-1; format: biochemical, E. coli; parameters: His-tag (N); TEV cleavage site (N); made in house; host or cells: E. coli BL21 (DE3)
Description: Then, we performed a thermal denaturation whilst simultaneously monitoring the intrinsic fluorescence as a measure of the folding status of the molecule (Fig. 1D and Supplementary Fig. 2D) and the static light scattering as a measure of aggregation (Fig. 1E and Supplementary Fig. 2E).
D Heat denaturation of TEM-1 monitored by intrinsic fluorescence plotted as the BaryCentric Mean (BCM) of the fluorescence emission spectrum in the presence (red) and absence (blue) of tazobactam. […] E Temperature-dependent evolution of the Right-Angle Light Scattering (RALS) intensity measured simultaneously with the data in D to monitor protein aggregation. […] F Same data as in E, but showing a dose-titration of the beta-lactamase inhibitor tazobactam.

SHV-11 = target: T2, SHV-11 (Klebsiella pneumoniae, UniProt P0AD64, L31Q); experiment: Thermal denaturation, Right-Angle Light Scattering (aggregation); format: biochemical; conditions: excess of tazobactam; less marked than for TEM-1
T2 construct: His-tag (N); TEV cleavage site (N); made in house; host or cells: E. coli BL21 (DE3)
T2 sequence (P0AD64 22-286 L31Q): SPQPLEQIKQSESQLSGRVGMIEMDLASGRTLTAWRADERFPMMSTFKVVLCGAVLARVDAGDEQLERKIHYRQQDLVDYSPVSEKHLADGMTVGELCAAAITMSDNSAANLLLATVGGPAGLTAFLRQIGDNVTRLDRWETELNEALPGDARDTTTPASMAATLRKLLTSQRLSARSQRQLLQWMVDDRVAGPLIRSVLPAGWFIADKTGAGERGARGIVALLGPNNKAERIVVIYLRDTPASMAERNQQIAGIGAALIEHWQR

E. coli strain UZ_TEM104 = experiment: microbe, parasite or virus in culture; format: cell-based, Escherichia coli
[4] = system: uro-pathogenic E. coli strain (UPEC strain blaTEM-1); experiment: Urinary tract infection model, bacterial load in bladder, kidney, ureter; format: in vivo, female C57BL/6JAX mice; parameters: bacterial load, Ureters / bacterial load, Bladder / bacterial load, Kindey: unit: CFU per mL of tissue extract
Experimental: Fig. 7 Evaluation of in vivo use of peptides that induce the aggregation of TEM beta-lactamase. A Lysis of human erythrocytes (hemolysis) was assessed in the presence of the indicated concentrations of TEM3.2 for 2 h at 37 °C, and normalized to the value obtained with 1% of the detergent triton. […] B Cell viability using the CellTiter Blue assay of HeLa cells treated for 24 h with the indicated concentrations TEM 3.2 at 37 °C. […] DAPI (4’,6-diamidino-2-phenylindole) is blue, while CellMask is red. D Experimental workflow of the in vivo model used in this study. E–G Bacterial load of indicated organs of female C57BL/6JAX mice with a urinary tract infection with E. coli strain UZ_TEM104, treated with 30 mg/kg penicillin (oral) as well 10 mg/kg tazobactam (oral) or 10 mg/kg TEM3.2 via the indicated treatment route. IV intravenous, IP intraperitoneal, SC subcutaneously. The data shown is from a single experiment with 12 animals for each group. The result for each animal is shown as a dot. […] The statistically significant differences were determined using ANOVA, followed by Dunnett’s multiple comparison test. […] Source data are provided as a Source Data file.
as §1
To test the efficacy of the peptides, a urinary tract infection model was performed as described previously. Briefly, female C57BL/6Jax mice female mice were deprived of water for at least 1 h. Then, they were anesthetized by IP administration of the mixture of ketamine (Nimatek)/xylazine (XYL-M 2% BE-V170581). The bladder of the mouse was massaged with fingers and pushed down gently to expel the remaining urine. Mice were slowly inoculated urethrally with 50 µL of a bacterial suspension slowly over 5 s to avoid vesicoureteral reflux (10^8 CFU/ mouse) using a sterile catheter (pediatric intravenous-access cannula (GS391350)). The catheter was removed directly after inoculation. After surgery, the animals were visually monitored for full recovery. After 1 h post inoculation, all mice received Ampicillin (30 mg/kg_PO-orally) and at the same time 3 groups of animals received the peptides via different administration routes (10 mg/kg_IV—intravenous; IP—intraperitoneal or SC—sub-cutaneous) and the positive control groups received tazobactam (10 mg/kg, PO). The negative control groups received vehicle or saline (IV administration). 2 h post inoculation, all mice received a second injection with the same concentration of each treatment as explained above. Twenty-four hours post-infection, mice were sacrificed and organs (kidney, bladder, ureter) were washed with PBS and were homogenized (Thermo Savant FastPrep FP120 Homogenizer/24 s). The homogenized tissues were serially diluted and cultured on blood agar plates. The plates were incubated overnight at 37 °C, and the number of bacteria was measured by CFU value.

[5] = group Tazo, each column one mouse

C[C@]1(Cn2ccnn2)[C@H](C(=O)O)N2C(=O)C[C@H]2S1(=O)=O [Tazobactam, tazobactam sodium salt]
MIC Ampicillin in the presence of additive [1]: 25 µg/mL | Sum (TEM-1 [2]; G1 + G2, with molar excess of tazobactam (no tazo 10.40)): 10.28 kcal/mol | G2 (TEM-1 [2]; urea denaturation of TEM-1 with molar excess of tazobactam, 3-state fit, 3 replicates (no tazo 5.00)): 4.03 kcal/mol | G1 (TEM-1 [2]; urea denaturation of TEM-1 with molar excess of tazobactam, 3-state fit, 3 replicates (no tazo 5.40)): 6.25 kcal/mol | effect on aggregation of TEM-1 during thermal denaturation (in words) (TEM-1 [3]; excess of tazobactam, more marked for TEM-1 than SHV-11): a decrease in the aggregation of the protein | effect on aggregation of TEM-1, dose-response (in words) (TEM-1 [3]; static light scattering during temperature ramp, inhibitor titration): reduce the aggregation of the enzyme in a dose-responsive manner | effect on aggregation of SHV-11 during thermal denaturation (in words) (SHV-11): a decrease in the aggregation of the protein | MIC penicillin (E. coli strain UZ_TEM104; E. coli UZ_TEM104, concentration of additive 50 (mg/mL [sic])): 400000 µg/mL | fold reduction of the MIC of penicillin G (E. coli strain UZ_TEM104; additive at 50 μg/mL): 4 fold | MIC penicillin (E. coli strain UZ_TEM104; in the presence of additive (peptide or tazobactam) at fixed 50 μg/mL): 400 µg/mL | best reduction of the bacterial load ([4]; 10 mg/kg plus 30 mg/kg Ampicillin orally at 60 and 120 min post-infection, CFU at 24 h, most robust in kidney and ureter): 1.8 log folds | bacterial load, Bladder [4, 5]: 26566.7 and 152667 and 97400 and 1 and 3700 and 1433.33 and 3000 and 1800 and 1966.67 and 316733 and 4266.67 and 3266.67 | bacterial load, Kindey [4, 5]: 24000 and 134000 and 72733.3 and 633.333 and 1 (3×) and 10200 and 2066.67 and 17700 and 9833.33 and 4600 | bacterial load, Ureters [4, 5]: 2433.33 and 54400 and 33133.3 and 133.333 and 166.667 and 1 (2×) and 1000 and 800 and 11633.3 and 1900 and 1166.67
